SMILES strings stand for the structures.

For experiment [1], the target named is T1, Rat testicular C17,20 lyase (Rattus norvegicus, UniProt P11715).
T1 construct: testes were excised, capsules were removed, and the tissue was weighed; from tissue; host or cells: testes of male Copenhagen rats (Harlan Laboratories), 10,000 x G supernatant of homogenate
T1 sequence (P11715 1-507): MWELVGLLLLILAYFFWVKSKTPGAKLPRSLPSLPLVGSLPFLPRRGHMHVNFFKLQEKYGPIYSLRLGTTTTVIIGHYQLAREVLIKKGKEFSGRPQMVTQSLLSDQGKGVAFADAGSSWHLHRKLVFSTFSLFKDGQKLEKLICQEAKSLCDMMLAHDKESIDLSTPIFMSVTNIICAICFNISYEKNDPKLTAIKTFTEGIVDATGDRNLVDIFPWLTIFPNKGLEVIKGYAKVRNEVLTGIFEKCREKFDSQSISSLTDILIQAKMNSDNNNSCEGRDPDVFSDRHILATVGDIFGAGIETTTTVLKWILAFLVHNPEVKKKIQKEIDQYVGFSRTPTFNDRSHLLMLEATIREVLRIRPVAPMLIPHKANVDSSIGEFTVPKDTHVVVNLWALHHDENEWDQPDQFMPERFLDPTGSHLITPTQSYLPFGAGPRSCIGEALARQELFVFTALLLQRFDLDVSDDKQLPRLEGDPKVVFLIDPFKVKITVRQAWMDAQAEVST
Description: Ex vivo inhibition of C17,20 lyase in rat testes after dosing. Set-up: species or system Male Copenhagen rats. How it is done:
Ex vivo inhibition of C17,20 lyase: MDL 103,432 was tested for ex vivo inhibition of rat and nude mouse testes lyase. Male Copenhagen rats and male athymic nude mice obtained from Harlan Laboratories, Indianapolis, IN, were divided into groups of 5 to 6 based on weight. Average weight was 100-140 g each for rats and 18-35 g each for the mice. Prior to oral dosing, animals were fasted overnight. Test compound was prepared by micronization in a lecithin vehicle using a glass Teflon® pestle-type homogenizer. The compound was brought to volume using lecithin so as to administer 0.5 mL per 100 g animal. Rats and nude mice were given vehicle only (controls) or vehicle plus test compounds peros. Rats were also given the compound in lecithin or lecithin alone subcutaneously. Each group consisted of 5-6 animals. At a specified time after dosing, the animals were anesthetized with CO2 gas, sacrificed by cervical dislocation, testes were excised, capsules were removed, and the tissue was weighed. Two volumes (w/v) of 0.05 M potassium phosphate buffer, pH 7.2, was added to the rat testes tissue on ice, and 11 volumes (w/v) of the same buffer were added to the mouse testes. Tissue was then homogenized using 20 strokes with a Dounce homogenizer equipped with a tight pestle. Homogenized tissue was centrifuged at 800 x G then at 10,000 x G for 15 minutes each. Supernatant was decanted, reserved, and kept chilled on ice. Assays for lyase activity contained the same buffer and NADPH regenerating system described above and also contained […] of 10,000 x G supernatant which was diluted 3-fold resulting in a 5-fold dilution overall in the final assay volume. Substrate, 17α-hydroxyprogesterone plus 1,3-[^3H]-17α-hydroxyprogesterone (40-57 mCi/mmole; 0.18 µCi per assay) to yield a final concentration of 0.1 µM, (=Km) was added to the remaining assay components after a 5 minute equilibration a 20°C of the latter. The total assay volume was 200 µL. Activity was assayed for 20 seconds at 20°C. Assays were terminated, extracted and analyzed as described above except that carrier steroids were 17α-hydroxyprogesterone, androst-4-ene-dione, and testosterone. The organic phase containing the steroids was evaporated using nitrogen gas, the residues dissolved in 18% tetrahydrofuran (v/v) in hexane, and the steroid substrate, 17α-hydroxyprogesterone, and products (AED, TEST) were separated by HPLC on a Si60 (5 µm) column (250 x 4 mm) using 20% (v/v) tetrahydrofuran (THF) in hexane for 20 minutes then ramping to 60% THF (v/v) for 11 minutes. Activity of test compound was expressed as percent inhibition relative to the control and was the mean of each group of treated animals.

The subject of experiment [2] is Dunning H Tumor. Description: Dunning H tumor growth in rats. The format is in vivo, male Copenhagen rats. The settings on record: MDL 105831 15 mg/kg/day PO, MDL 15910 50 mg/kg/day PO. The source says:
As described in J.T. Isaacs & D.S. Coffey, Cancer Res. 41:5070-5075 (1981); W.J. Ellis & J.T. Issacs, Cancer Res. 45:6041-6050 (1985); T.W. Bedding & A.V. Schally, The Prostate 6:219-232 (1985) and P.E. Juniewicz et al. The Prostate 18:105-115 (1991), male Copenhagen rats were obtained from HARLAN-SPRAGUE-DAWLEY Inc. (Indianapolis, IN), and were individually housed in suspended wire cages and provided laboratory rodent chow (Purina 5001 pellets, Purina Mills, St. Louis, MO) and deionized water ad libum. The rats were anesthetized using sodium pentobarbital and the hair was clipped from the back dorsal area. Tumors from donor Copenhagen rats were cut into fragments of 10 mm^3 and implanted subcutaneously (one site per rat) into the prepared dorsal area.
Animals were selected (105 days post implantation) for the treatment phase based on tumor size. Ten animals were anesthetized with sodium pentobarbital and bilaterally castrated. The remaining animals were assigned to treatment groups (ten per group) based on mean group tumor size. Animals were kept separate throughout the study. The tested compounds were prepared in solution or suspension in a lecithin vehicle (L-α-phosphatidylcholine type XV-E) containing methylparaben and propylparaben. All treatments were performed by oral gavage (per os) at 2 cc/kg each day of study. Tumor size and rat body weights were recorded every seven days over a period of 35 days. Twenty-four hours after the last treatment animals were euthenized by CO2 and the tumors, prostate, seminal vesicles and testes were removed and weighed. In Table 4, average tumor growth is determined from the corrected group means over a 35 day period after treatment was started. […] The animals eliminated from the calculation of the corrected means were in Figure 6, animals 8, 9, 10; in Figure 7, animals 18, 19 and 20; in Figure 8, animals 27, 28, 29 and 30; and in Figure 9, animals 37, 39 and 40. The castrated controls in Figure 10 present a different problem. Here it is believed that the different tumor volumes observed throughout the group is attributable to the different sizes at the beginning of the study. Since the mean variance here is clearly attributable to factors other than the effect of the castration itself, animals 47, 48, 49 and 50 were deleted from the corrected mean. Of these, animal 47 died during the treatment period.
Table 4 indicates the average daily growth rate, measured from the corrected mean tumor size on day 35 and day 0, comparing MDL 105831 and flutamide (MDL 15910), a known androgen receptor antagonist. […]

As usually defined, the inhibition is the drop in the measured response relative to a control, in per cent. Consider `CC12CCC3C(CC[C@H]4NC(=O)CCC34C)C1CC[C@@H]2OC1CC1` (stereo partly drawn) [MDL 103,432, 17β-Cyclopropyloxy-4-aza-5α-androstan-3-one], for which the inhibition at 50 mg/kg in experiment [1] (po, 50 mg/kg p.o., 4 hr after dosing) is 66.4%; in experiment [1] (po, 50 mg/kg p.o., 24 hr after dosing), 52.7%; in experiment [1] (sc, 50 mg/kg s.c., 4 hr after dosing) it was 32.9%; in experiment [1] (sc, 50 mg/kg s.c., 24 hr after dosing), 40.7%.

`C[C@]12CC[C@H]3[C@@H](CC=C4NC(=O)CC[C@@]43C)[C@@H]1CC[C@@H]2NC1CC1` [MDL 105,831, 17β-Cyclopropylamino-4-aza-androst-5-en-3-one]: the “Tumor Growth in Dunning H Rat, Day 0” value in experiment [2] (Day 0 (baseline), corrected group mean) was found to be 328.40 mm^3. Further, in experiment [2] (Day 7, corrected group mean), the “Tumor Growth in Dunning H Rat, Day 7” value is reported as 389.90 mm^3. Moreover, in experiment [2] (Day 16, corrected group mean), the “Tumor Growth in Dunning H Rat, Day 16” value was 497.20 mm^3. Besides, the “Tumor Growth in Dunning H Rat, Day 21” value in experiment [2] (Day 21, corrected group mean) was found to be 759.40 mm^3. For the same compound, the “Tumor Growth in Dunning H Rat, Day 29” value in experiment [2] (Day 29, corrected group mean) was 1135.80 mm^3. For the same compound, in experiment [2] (Day 35, corrected group mean), the “Tumor Growth in Dunning H Rat, Day 35” value was found to be 1041.60 mm^3. Besides, in experiment [2] (average daily growth rate from corrected mean tumor size), the “Δv/Δt (day 35-day 0)” value amounted to 20.38 mm^3/day.

The values are drawn from patent publication EP0880540B1, “17-BETA-CYCLOPROPYL(AMINO/OXY) 4-AZA STEROIDS AS ACTIVE INHIBITORS OF TESTOSTERONE 5-ALPHA-REDUCTASE AND C17-20-LYASE” (Aventis Pharmaceuticals Inc., priority 1996, dated 1997).
